Measured values: PMC10812672, “Short Antimicrobial Peptide Derived from the Venom Gland Transcriptome of Pamphobeteus verdolaga Increases Gentamicin Susceptibility of Multidrug-Resistant Klebsiella pneumoniae” (Antibiotics, 2023)
Ends that are not written are not given here.

Legend:
[1] = system: P. aeruginosa ATCC® 9027; assay type: cell-based, Pseudomonas aeruginosa
Experimental: (§1) The nine AMPs identified in the initial screening were evaluated at concentrations between 1.56–200 µM, against E. coli ATCC® 25922, S. aureus ATCC® 29213, E. faecalis ATCC® 49532, P. aeruginosa ATCC® 9027, and K. pneumoniae ATCC® BAA-1705 (Supplementary Figures S2–S6). […] Only PvAMP66 and PvAMP172 reached the MBC for S. aureus at 50 µM and 100 µM, respectively (Table 2).
(§2) The evaluation of the antimicrobial activity of the peptides was conducted using the CLSI’s broth microdilution method for bacterial susceptibility testing. For the screening phase, peptides were evaluated at a single 30 μM concentration, in triplicate and in three independent assays, against the E. coli ATCC® 8739, E. coli ATCC® 25922, S. aureus ATCC® 6538, or S. aureus ATCC® 29213 reference USP and CLSI strains. For the determination of MIC, MBC, or IC50, peptides or antibiotics were evaluated in concentrations between 1.56–200 µM. These evaluations were conducted in triplicate and in three independent assays, against the E. coli ATCC® 25922, S. aureus ATCC® 29213, E. faecalis ATCC® 49532, P. aeruginosa ATCC® 9027, and K. pneumoniae ATCC® BAA-1705, or the clinically isolated MDR strain. In detail, 1 mL of a glycerol stock solution of the ATCC® or clinically isolated bacterial strain was added to 9 mL of Mueller-Hinton Broth and incubated for 18 h, 180 rpm and 37 °C (Incubator 1000, Heidolph Instruments, Schwabach, Germany). After the incubation, 1 mL of the previous solution was transferred to a new recipient containing 9 mL of fresh Mueller-Hinton broth and incubated for 4 h, 180 rpm and 37 °C (Incubator 1000, Heidolph Instruments, Schwabach, Germany). During the second incubation, the peptides or the antibiotics were dissolved in PBS pH 7.20 in concentrations between 19.53–2500 µM (MC5 Micro Balance, Sartorius AG, Göttingen, Germany). An amount of 10 µL of either peptide or antibiotic was dispensed in triplicate in 96-well flat bottom culture plates, along with 10 µL of PBS (Negative activity control), BTM-P1 (Positive activity control), or 10 µL of Mueller-Hinton broth (Blank); then, 110 µL of Mueller-Hinton broth was poured in all wells. Following this, the bacteria were suspended in Mueller-Hinton broth up to a concentration of approximately 1.50 × 10^8 CFU/mL, as measured by optical density at 600 nm between 0.06 to 0.11 (0.5 McFarland standard), in a Multiskan SkyHigh spectrophotometer (ThermoFisher Scientific, Waltham, MA, USA). Amounts of 5 µL of the 1.50 × 10^8 CFU/mL suspension were added to each well (except for the blank) for a final well concentration of approximately 6 × 10^6 CFU/mL. The plate was incubated for 24 h at 37 °C (BE 500, Memmert GmbH, Büchenbach, Germany) and optical density was measured at 600 nm in a Multiskan SkyHigh spectrophotometer (ThermoFisher Scientific, Waltham, MI, USA). Following the measurement of optical density, plates were visually inspected to determine the MIC. Subsequently, 100 µL of the concentration associated to the MIC and 100 µL of the next higher concentration were added to Petri dishes containing Mueller-Hinton Agar. The dishes were then incubated for 24 h at 37 °C (BE 500, Memmert GmbH, Büchenbach, Germany). After incubation, the Petri dishes were visually inspected, and the MBC was determined in the absence of growth. IC50 values were interpolated from regressions with correlation values above 0.70. Growth inhibition percentages were calculated as follows: Growth inhibition %=1−AbsPEPTIDE or ANTIBIOTIC−Median AbsBLANK/Median AbsPBS−Median AbsBLANK×100

[2] = system: S. aureus ATCC® 29213; assay type: cell-based, Staphylococcus aureus
Experimental: as §1, §2

[3] = system: E. coli ATCC® 25922; assay type: cell-based, Escherichia coli
Experimental: as §1, §2

[4] = 1.56–200 µM, 24 h 37 °C, visual inspection, triplicate, three independent assays
[5] = plating on Mueller-Hinton agar, absence of growth

For WKKIKKFF-NH2 [PvAMP66], the MIC [1, 4] was 12.5 µM, the IC50 ([1]; growth inhibition OD600, 95% confidence interval in parentheses) was 12.7 µM and the MBC [1, 5] was 12.5 µM. It also gave an MIC [2, 4] of 25 µM, an MBC [2, 5] of 50 µM and an MIC [3, 4] of 50 µM. The IC50 ([3]; growth inhibition OD600, interpolated from regression, 95% confidence interval in parentheses, read-out: IC50) was 38.3 µM and the MBC ([3]; plating on Mueller-Hinton agar, 24 h 37 °C, absence of growth) was 50 µM.
